The text below walks through data of patent publication US8324390B2, “Tetrazole-substituted anthranilamides as pesticides” (Bayer CropScience AG, priority 2008, dated 2012).

Read-outs that look alike come from different tables or passages of the source. Some results are limits rather than exact numbers.

Data set [1] relates to caterpillars of the armyworm (Spodoptera frugiperda). Put plainly: Spodoptera frugiperda test (SPODFR spray treatment). It counts as in vivo. Particulars: Spodoptera frugiperda, foliar, read-out: effect in % (caterpillars killed). From the text: (§1) Solvent: 78.0 parts by weight of acetone
Data set [2] can be described thus: log P determination by HPLC (EEC Directive 79/831 Annex V.A8). Type of data set: physicochemical. How it is done:
The measurements were carried out using an Agilent 1100 LC system with a 50*4.6 Zorbax Eclipse C18 1.8 μm column (oven temperature 55° C., flow rate 2.0 ml/min).
The following mobile phases were used:
Mobile phase A: acetonitrile+1000 μl of formic acid/l
Mobile phase B: Millipore water+900 μl of formic acid/l

Data set [3] concerns larvae of the mustard beetle (Phaedon cochleariae). Put plainly: Phaedon test (PHAECO spray treatment). As to conditions: Phaedon cochleariae, in Brassica rapa, foliar, read-out: effect in % (beetle larvae killed).
For data set [4], the system named is green peach aphid (Myzus persicae). The data set can be described thus: Myzus test (MYZUPE spray treatment). It counts as in vivo. Particulars: Myzus persicae, foliar, read-out: effect in % (aphids killed).
Text: Solvent: 78 parts by weight of acetone
as §1

The mark [5] stands for this setting: application rate 100 g/ha, maize leaf discs.
The mark [6] stands for this setting: reversed-phase HPLC, Zorbax Eclipse C18 column, by HPLC according to EEC Directive 79/831 Annex V.A8, read-out: log P.
[7] abbreviates: application rate 100 g/ha, Chinese cabbage leaf discs.
Setting [8] is: reversed-phase HPLC, Zorbax Eclipse C18 column, determined by HPLC according to EEC Directive 79/831 Annex V.A8, read-out: log P.

In the case of `Cc1cc(Cl)cc(C(=O)NC(C)(C)C)c1NC(=O)c1cc(Cn2nnc(C(F)(F)F)n2)nn1-c1ncccc1C(F)(F)F` [Example 224], the pest or weed control at 100 g/ha in data set [1] (setting [5]), in data set [3] and in data set [4] (setting [7]) was no less than 80% in each case. Moreover, the chromatographic logP in data set [2] (setting [6]) is 4.
For the molecule `Cc1cc(I)cc(C(=O)NC(C)(C)C)c1NC(=O)c1cc(Cn2nnnc2C(F)(F)F)nn1-c1ncccc1Cl` [Example 183], the pest or weed control at 100 g/ha in data set [1] (in Zea mays), in data set [3] and in data set [4] (in Brassica rapa) was no less than 80% each time. Also, the chromatographic logP in data set [2] (log P) worked out at 3.74.
For `Cc1cc(C#N)cc(C(N)=O)c1NC(=O)c1cc(C(C)n2nnc(C(F)(F)F)n2)nn1-c1ncccc1Cl` (centres unmarked) [Example 437], the pest or weed control at 100 g/ha in data set [1] (in Zea mays), in data set [3] and in data set [4] (in Brassica rapa) was no less than 80% each time. In addition, the chromatographic logP in data set [2] (log P) was 2.66.
Take `O=C(NCC1CC1)c1cc(Cl)cc(Cl)c1NC(=O)c1cc(Cn2nnc(C(F)F)n2)nn1-c1ncccc1Cl` [Example 289]: the pest or weed control at 100 g/ha in data set [1] (in Zea mays), in data set [3] and in data set [4] (in Brassica rapa) was no less than 80% each time. This molecule also yielded a chromatographic logP in data set [2] (log P) of 3.01.
`Cc1cc(C#N)cc(C(=O)NC(C)C)c1NC(=O)c1cc(Cn2nnnc2C(F)(F)F)nn1-c1ccccc1Cl` [Example 491]: the pest or weed control at 100 g/ha in data set [1] (setting [5]), in data set [3] and in data set [4] (setting [7]) was no less than 80% each time. Also, the chromatographic logP in data set [2] (setting [8]) was found to be 3.25.
Take `O=C(NC1CC1)c1cc(Cl)cc(Cl)c1NC(=O)c1cc(Cn2nnc(C(F)F)n2)nn1-c1ncccc1Cl` [Example 284]: the pest or weed control at 100 g/ha in data set [1] (in Zea mays), in data set [3] and in data set [4] (in Brassica rapa) was no less than 80% in each case. Also, the chromatographic logP in data set [2] (log P) came to 2.7.
`Cc1cc(Cl)cc(C(N)=O)c1NC(=O)c1cc(Cn2nnc(C(F)F)n2)nn1-c1ncccc1Cl` [Example 304]: the pest or weed control at 100 g/ha in data set [1] (in Zea mays), in data set [3] and in data set [4] (in Brassica rapa) was no less than 80% in each case. This molecule also showed a chromatographic logP in data set [2] (log P) of 2.32.
For `Cc1cc(F)cc(C(=O)NC2CC2)c1NC(=O)c1cc(Cn2nnnc2C(F)(F)F)nn1-c1ncccc1Cl` [Example 169], the pest or weed control at 100 g/ha in data set [1] (in Zea mays), in data set [3] and in data set [4] (in Brassica rapa) was no less than 80% in each case. The same molecule came in with a chromatographic logP in data set [2] (log P) of 2.57.
With `Cc1cc(C#N)cc(C(=O)NC(C)C)c1NC(=O)c1cc(Cn2nnc(C(F)(F)F)n2)nn1-c1ccccc1Cl` [Example 341], the pest or weed control at 100 g/ha in data set [1] (setting [5]), in data set [3] and in data set [4] (setting [7]) was no less than 80% throughout. The chromatographic logP in data set [2] (setting [6]) was determined as 3.6.
As for `CNC(=O)c1cc(C#N)cc(C)c1NC(=O)c1cc(Cn2nnc(C(F)(C(F)(F)F)C(F)(F)F)n2)nn1-c1ncccc1Cl` [Example 367], the pest or weed control at 100 g/ha in data set [1] (in Zea mays), in data set [3] and in data set [4] (in Brassica rapa) was no less than 80% each time. Besides, in data set [2] (log P), the chromatographic logP came out at 3.35.
As to `CCNC(=O)c1cc(C#N)cc(C)c1NC(=O)c1cc(Cn2nnnc2C(F)(F)F)nn1-c1ncccc1Cl` [Example 191], the pest or weed control at 100 g/ha in data set [1] (in Zea mays), in data set [3] and in data set [4] (in Brassica rapa) was no less than 80% throughout. Further, the chromatographic logP in data set [2] (log P) stood at 2.5.
On to `CNC(=O)c1cc(Cl)cc(C)c1NC(=O)c1cc(Cn2nnc(C(F)(F)F)n2)nn1-c1cc(Cl)ccc1Cl` [Example 313], for which the pest or weed control at 100 g/ha in data set [1] (setting [5]), in data set [3] and in data set [4] (setting [7]) was no less than 80% each time. Also, the chromatographic logP in data set [2] (setting [6]) came out at 3.93.
With `Cc1cc(I)cc(C(=O)NC(C)C)c1NC(=O)c1cc(Cn2nnnc2C(F)(F)F)nn1-c1ncccc1C(F)(F)F` [Example 450], the pest or weed control at 100 g/ha in data set [1] (setting [5]), in data set [3] and in data set [4] (setting [7]) was no less than 80% in each case. In data set [2] (setting [8]), the chromatographic logP worked out at 3.54.
As for `CNC(=O)c1cc(C#N)cc(C)c1NC(=O)c1cc(Cn2nnc(C(F)(F)F)n2)nn1-c1ccccc1F` [Example 318], the pest or weed control at 100 g/ha in data set [1] (setting [5]), in data set [3] and in data set [4] (setting [7]) was no less than 80% throughout. In addition, the chromatographic logP in data set [2] (setting [6]) was 2.92.
In the case of `Cc1cc(Br)cc(C(N)=O)c1NC(=O)c1cc(Cn2nnc(C(F)(F)F)n2)nn1-c1ncccc1Cl` [Example 44], the pest or weed control at 100 g/ha in data set [1] (in Zea mays), in data set [3] and in data set [4] (in Brassica rapa) was no less than 80% each time. For the same molecule, the chromatographic logP in data set [2] (log P) was 2.81.
Consider `Cc1cc(Br)cc(C(=O)NC2CC2)c1NC(=O)c1cc(Cn2nnnc2C(F)(F)F)nn1-c1ncccc1Cl` [Example 181], for which the pest or weed control at 100 g/ha in data set [1] (in Zea mays), in data set [3] and in data set [4] (in Brassica rapa) was no less than 80% throughout. Further, in data set [2] (log P), the chromatographic logP was 2.99.
As to `O=C(NC1CC1)c1cc(Cl)cc(Cl)c1NC(=O)c1cc(Cn2nnc(C(F)(C(F)(F)F)C(F)(F)F)n2)nn1-c1ncccc1Cl` [Example 339], the pest or weed control at 100 g/ha in data set [1] (in Zea mays), in data set [3] and in data set [4] (in Brassica rapa) was no less than 80% each time. Further, the chromatographic logP in data set [2] (log P) is 3.89.
Turning to `CCNC(=O)c1cc(Cl)cc(C)c1NC(=O)c1cc(Cn2nnnc2C(F)(F)F)nn1-c1ncccc1Br` [Example 494], the pest or weed control at 100 g/ha in data set [1] (setting [5]), in data set [3] and in data set [4] (setting [7]) was no less than 80% each time. In data set [2] (setting [8]), the chromatographic logP was found to be 2.88.
Regarding `Cc1cc(C#N)cc(C(=O)NC2CC2)c1NC(=O)c1cc(Cn2nnc(C(F)F)n2)nn1-c1ncccc1Cl` [Example 264], the pest or weed control at 100 g/ha in data set [1] (in Zea mays), in data set [3] and in data set [4] (in Brassica rapa) was no less than 80% throughout. The molecule further came in with a chromatographic logP in data set [2] (log P) of 2.39.
Turning to `C#CC(C)NC(=O)c1cc(C#N)cc(C)c1NC(=O)c1cc(Cn2nnc(C(F)(F)F)n2)nn1-c1ncccc1Cl` (centres unmarked) [Example 432], the pest or weed control at 100 g/ha in data set [1] (in Zea mays), in data set [3] and in data set [4] (in Brassica rapa) was no less than 80% in each case. Besides, in data set [2] (log P), the chromatographic logP was 2.97.
`Cc1cc(I)cc(C(N)=O)c1NC(=O)c1cc(Cn2nnnc2C(F)(F)F)nn1-c1ncccc1Br` [Example 497]: the pest or weed control at 100 g/ha in data set [1] (setting [5]), in data set [3] and in data set [4] (setting [7]) was no less than 80% in each case. In addition, the chromatographic logP in data set [2] (setting [8]) came out at 2.63.
Take `CNC(=O)c1cc(Cl)cc(C)c1NC(=O)c1cc(Cn2nnc(C(F)F)n2)nn1-c1ncccc1Cl` [Example 255]: the pest or weed control at 100 g/ha in data set [1] (in Zea mays), in data set [3] and in data set [4] (in Brassica rapa) was no less than 80% in each case. This molecule registered a chromatographic logP in data set [2] (log P) of 2.46.
Take `CNC(=O)c1cc(C#N)cc(C)c1NC(=O)c1cc(Cn2nnnc2C(F)(F)C(F)(F)F)nn1-c1ncccc1Br` [Example 516]: the pest or weed control at 100 g/ha in data set [1] (setting [5]), in data set [3] and in data set [4] (setting [7]) was no less than 80% each time. Also, in data set [2] (setting [8]), the chromatographic logP came out at 2.72.
For `Cc1cc(Br)cc(C(N)=O)c1NC(=O)c1cc(Cn2nnnc2C(F)(F)F)nn1-c1ncccc1Br` [Example 498], the pest or weed control at 100 g/ha in data set [1] (setting [5]), in data set [3] and in data set [4] (setting [7]) was no less than 80% each time. In addition, the chromatographic logP in data set [2] (setting [8]) was 2.51.
Take `CNC(=O)c1cc(Cl)cc(Cl)c1NC(=O)c1cc(Cn2nnc(C(F)(F)F)n2)nn1-c1ncccc1Cl` [Example 54]: the pest or weed control at 100 g/ha in data set [1] (in Zea mays), in data set [3] and in data set [4] (in Brassica rapa) was no less than 80% throughout. In addition, the chromatographic logP in data set [2] (log P) stood at 2.93.
Take `Cc1cc(C#N)cc(C(=O)NC(C)(C)C)c1NC(=O)c1cc(Cn2nnnc2C(F)F)nn1-c1ncccc1Cl` [Example 464]: the pest or weed control at 100 g/ha in data set [1] (in Zea mays), in data set [3] and in data set [4] (in Brassica rapa) was no less than 80% in each case. This molecule also registered a chromatographic logP in data set [2] (log P) of 2.59.
With `CNC(=O)c1cc(C#N)cc(C)c1NC(=O)c1cc(Cn2nnc(C(F)(F)C(F)(F)F)n2)nn1-c1ccccc1Cl` [Example 430], the pest or weed control at 100 g/ha in data set [1] (setting [5]), in data set [3] and in data set [4] (setting [7]) was no less than 80% throughout. Also, the chromatographic logP in data set [2] (setting [8]) was determined as 3.43.
With `Cc1cc(C#N)cc(C(=O)NC(C)(C)C)c1NC(=O)c1cc(Cn2nnnc2C(F)(F)F)nn1-c1ccccc1C(F)(F)F` [Example 488], the pest or weed control at 100 g/ha in data set [1] (setting [5]), in data set [3] and in data set [4] (setting [7]) was no less than 80% each time. In addition, the chromatographic logP in data set [2] (setting [8]) was 3.58.
Turning to `CCNC(=O)c1cc(C#N)cc(C)c1NC(=O)c1cc(Cn2nnc(C(F)(F)F)n2)nn1-c1ncccc1Cl` [Example 21], the pest or weed control at 100 g/ha in data set [1] (in Zea mays), in data set [3] and in data set [4] (in Brassica rapa) was no less than 80% in each case. In data set [2] (log P), this molecule returned a chromatographic logP of 2.85.
